Results as given in US20110275577A1, “METHODS OF TREATING DERMATOLOGIC, GYNECOLOGIC, AND GENITAL DISORDERS WITH CAFFEIC ACID ANALOGS” (Moleculin, LLC, priority 2010, published 2011).

Tested on: psoriasis patients
Test: Human Psoriasis Study of WP1220 and CABE (pilot study)
Assay type: in vivo
Conditions: topical treatment; psoriasis patients not responsive to current standard therapies
Experimental: Human Psoriasis Study of WP1220 and CABE—The compounds WP1220 and CABE were tested in a pilot study of psoriasis patients who were not responsive to current standard therapies.

Structure (SMILES) | patients responded with substantial improvement or complete resolution of psoratic lesions
C[C@H](NC(=O)/C(C#N)=C/C=C/c1cccc(Br)n1)c1ccccc1 [WP1220, (2E,4E)-5-(6-bromopyridin-2-yl)-2-cyano-N—((S)-1-phenylethyl)penta-2,4-dienamide] | seven out of seven
O=C(/C=C/c1ccc(O)c(O)c1)OCc1ccccc1 [CABE, (E)-Benzyl 3-(3,4-dihydroxyphenyl)acrylate] | five out of seven
